A short description of data set [1]: Heat cycled maturation and solubility assessment (liquors analysed by HPLC versus a standard).
Data set [2] can be described thus: Accelerated storage at 40° C./75% RH for 14 days. Particulars: for XRPD of Output / Nature of solid: 40° C./75% RH, 14 days, unsealed vials; for XRPD of Output: physical stability; for Nature of solid: visual observation for deliquescence; for change in form after stress: after stress at 40° C./75 RH. The data set is classed as physicochemical. From the text: Samples were visually observed for signs of deliquescence and analysed by XRPD post stressing for physical stability and HPLC for chemical stability.

Data set [3] in a line: Compression of amorphous solid, analysis by XRPD. In kind it is physicochemical. Particulars: force of 10^5N for approximately 24 hours. On the procedure: Experimental: D-LSD amorphous oxalate (Lot: DC1134, ˜50 mg) was pressed with a force of 10^5N for approximately 24 hours. The solids were then removed from the press for analysis by XRPD.

Read-outs that look alike come from different tables or passages of the source.

The record followed here is patent US12534460B2, “LSD salt crystal forms” (Mind Medicine, Inc., priority 2021, dated 2026).

Broadly, the solubility is the dissolved amount per volume that the medium holds.

Regarding `CCN(CC)C(=O)[C@@H]1C=C2c3cccc4[nH]cc(c34)C[C@H]2N(C)C1.O=S(=O)(O)O` [D-LSD Sulfate Amorphous Salt, D-LSD sulfate amorphous salt], the solubility in data set [1] (EtOH, at 25° C., sulfate salt) was over 100 mg/mL; in data set [1] (IPA/water (95:5), at 40° C., sulfate salt) it was over 100 mg/mL; in data set [1] (MeOH, at 25° C., sulfate salt), over 200 mg/mL; in data set [1] (iPrOAc/water (98:2), at 40° C., sulfate salt), over 100 mg/mL.

For the compound `CCN(CC)C(=O)[C@@H]1C=C2c3cccc4[nH]cc(c34)C[C@H]2N(C)C1.O=P(O)(O)O` [D-LSD phosphate Pattern C, D-LSD phosphoric acid salt Pattern C], in data set [2], the “XRPD of Output” value was “phosphate Pattern C”, the Nature of solid entry is “solid” and the “change in form after stress” value is “did not show a change in form”.

As to `CCN(CC)C(=O)[C@@H]1C=C2c3cccc4[nH]cc(c34)C[C@H]2N(C)C1.O=C(O)C(O)C(O)C(=O)O` [D-LSD D-tartrate Pattern A, D-LSD D-tartaric acid salt], the “reversibility of water uptake as relative humidity decreases” value (DVS profile, only minor hysteresis) is listed as “reversible”. Besides, under “[…]”, the “weight lost during the initial desorption cycle” value turned out to be 0.6 wt %. Further, the “water absorbed during the subsequent sorption cycle” value was 1% (at 90% RH) and 0.65% (up to 80% RH).

On to `CCN(CC)C(=O)C1C=C2c3cccc4[nH]cc(c34)CC2N(C)C1.O=C(O)C(=O)O` [D-LSD oxalate Pattern B], for which, in data set [2], the “XRPD of Output” value was “oxalate Pattern B”, the Nature of solid result is reported as “solid” and the “change in form after stress” value is recorded as “did not show a change in form”.

For the compound `Br.CCN(CC)C(=O)[C@@H]1C=C2c3cccc4[nH]cc(c34)C[C@H]2N(C)C1` [D-LSD amorphous HBr, D-LSD hydrobromide amorphous salt], the solubility was over 100 mg/mL in data set [1] (1,4-dioxane, at 40° C., HBr salt); over 100 mg/mL in data set [1] (EtOH, at 25° C., HBr salt); over 100 mg/mL in data set [1] (IPA/water (95:5 v/v), at 40° C., HBr salt); over 100 mg/mL in data set [1] (MEK, at 25° C., HBr salt); over 200 mg/mL in data set [1] (MeOH, at 25° C., HBr salt); over 200 mg/mL in data set [1] (THF/water (95:5 v/v), at 25° C., HBr salt). The solubility in data set [1] (iPrOAc/water (98:2 v/v), at 40° C., HBr salt) is over 100 mg/mL; in data set [1] (nitromethane, at 25° C., HBr salt), over 100 mg/mL. Moreover, the “Solubility 25° C.” value stood at 2.63 mg/mL in data set [1] (solvent EtOAc, input D-LSD amorphous HBr); 4.19 mg/mL in data set [1] (solvent IPAC*, input D-LSD amorphous HBr); 16.4 mg/mL in data set [1] (solvent MIBK, input D-LSD amorphous HBr); 8.68 mg/mL in data set [1] (solvent MeCN, input D-LSD amorphous HBr); 9.84 mg/mL in data set [1] (solvent TBME*, input D-LSD amorphous HBr); 3.12 mg/mL in data set [1] (solvent chlorobenzene, input D-LSD amorphous HBr). In addition, the “Solubility 25° C.” value in data set [1] (solvent heptane, input D-LSD amorphous HBr) was 0.05 mg/mL; in data set [1] (solvent toluene, input D-LSD amorphous HBr), 3.91 mg/mL; in data set [1] (solvent water, input D-LSD amorphous HBr) it was 25.1 mg/mL.

For `CCN(CC)C(=O)[C@@H]1C=C2c3cccc4[nH]cc(c34)C[C@H]2N(C)C1.O=C(O)C(=O)O` [Amorphous D-LSD oxalate, amorphous D-LSD oxalate salt], the “form by XRPD after compression” value in data set [3] is “remained as an amorphous solid”. For the same compound, the solubility in data set [1] (EtOH, at 25° C., oxalate salt) is over 200 mg/mL; in data set [1] (MeOH, at 25° C., oxalate salt), over 200 mg/mL. The “Solubility 25° C.” value in data set [1] (solvent 1,4-dioxane, input amorphous D-LSD oxalate) was 9.20 mg/mL; in data set [1] (solvent Chlorobenzene, input amorphous D-LSD oxalate), 2.30 mg/mL; in data set [1] (solvent EtOAc, input amorphous D-LSD oxalate), 3.42 mg/mL; in data set [1] (solvent IP AC, input amorphous D-LSD oxalate) it was 4.63 mg/mL; in data set [1] (solvent MEK, input amorphous D-LSD oxalate) it was 2.61 mg/mL; in data set [1] (solvent MIBK, input amorphous D-LSD oxalate) it was 1.60 mg/mL. For the same compound, the “Solubility 25° C.” value turned out to be 5.49 mg/mL in data set [1] (solvent MeCN, input amorphous D-LSD oxalate); 6.14 mg/mL in data set [1] (solvent Me—THF, input amorphous D-LSD oxalate); 8.67 mg/mL in data set [1] (solvent THF:water (95:5), input amorphous D-LSD oxalate); 6.49 mg/mL in data set [1] (solvent nitromethane, input amorphous D-LSD oxalate).
